This test has as its system IL-18. In words: IL-18 levels in LPS-induced septic mice. The class given is in vivo, c57BL/6J mice. The note with it: 24 hours after LPS, FIG. 7a. The method, then:
For serum cytokine evaluation, PBS or AS101 was injected intraperitoneally (i.p.) 2 hours following LPS treatment. For survival experiments AS101 was injected i.p. daily at various concentrations starting 1 hour and up to 24 hours following LPS until the end of the experiment.
The R&D Systems (Minneapolis, Minn.) IL-18 and IL-1β ELISA kits were used for the quantitative measurement of these cytokines either in supernatants or in mice sera.
PBS (control) and AS101 at various concentrations were injected into c57BL/6J mice 2 hours following induction of sepsis by LPS (0.5 mg/mouse) treatment. 24 hours after LPS injection, mice were sacrificed and evaluated for plasma concentration of these cytokines in order to determine whether AS101 can inhibit production of IL-18 and IL-1β in vivo.

`Cl[TeH]1(Cl)(Cl)OCCO1` [AS101, ammonium trichloro(dioxyethylene-O,O′)tellurate]: the “IL-18 level in septic mice” value runs as follows: (AS101 5 μg/mouse i.p. 2 hours after LPS 0.5 mg/mouse) “significantly inhibited”; (AS101 10 μg/mouse i.p. 2 hours after LPS 0.5 mg/mouse) “significantly inhibited”.

The values above are taken from patent US8623908B2, “Use of tellurium compounds for inhibition of interleukin-converting enzyme” (Biomas Ltd., priority 2004, dated 2014).
